Where a SMILES comes first, the peptide text is derived from it.
Tests used:
rh integrin α4β7 = target: T1, rh integrin α4β7 (Homo sapiens, UniProt P13612+P26010); test: α4β7-MAdCAM Competition ELISA; type: binding; conditions: thioether monomer peptides, Table 6; read-out: ELISA A4B7
T1 construct: purchased R&D Systems 5397-A30
T1 sequence (P13612 34-977 limits assumed): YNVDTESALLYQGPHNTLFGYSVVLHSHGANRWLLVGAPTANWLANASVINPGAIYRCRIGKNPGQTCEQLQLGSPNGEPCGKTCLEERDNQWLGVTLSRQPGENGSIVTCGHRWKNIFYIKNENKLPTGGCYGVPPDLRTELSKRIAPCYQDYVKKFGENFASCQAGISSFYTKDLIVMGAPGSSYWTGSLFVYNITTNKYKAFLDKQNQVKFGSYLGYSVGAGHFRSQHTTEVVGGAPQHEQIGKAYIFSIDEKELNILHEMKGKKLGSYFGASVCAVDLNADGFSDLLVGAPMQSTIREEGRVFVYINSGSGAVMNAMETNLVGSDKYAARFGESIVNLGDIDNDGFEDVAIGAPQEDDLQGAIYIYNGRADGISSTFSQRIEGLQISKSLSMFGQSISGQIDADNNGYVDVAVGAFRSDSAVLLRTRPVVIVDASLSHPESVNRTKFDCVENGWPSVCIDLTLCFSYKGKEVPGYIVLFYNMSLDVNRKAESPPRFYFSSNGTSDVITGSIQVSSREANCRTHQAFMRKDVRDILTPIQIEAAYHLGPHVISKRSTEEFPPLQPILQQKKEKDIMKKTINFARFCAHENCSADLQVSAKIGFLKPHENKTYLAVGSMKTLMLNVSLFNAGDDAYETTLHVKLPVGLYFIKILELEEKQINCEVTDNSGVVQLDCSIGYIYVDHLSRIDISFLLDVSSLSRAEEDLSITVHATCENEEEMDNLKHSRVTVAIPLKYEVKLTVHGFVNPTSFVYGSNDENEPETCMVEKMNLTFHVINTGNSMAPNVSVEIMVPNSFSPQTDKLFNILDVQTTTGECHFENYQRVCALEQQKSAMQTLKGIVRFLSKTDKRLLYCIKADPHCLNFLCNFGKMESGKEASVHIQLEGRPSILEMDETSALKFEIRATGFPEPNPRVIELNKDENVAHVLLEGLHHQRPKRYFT
T1 sequence (P26010 20-723 limits assumed): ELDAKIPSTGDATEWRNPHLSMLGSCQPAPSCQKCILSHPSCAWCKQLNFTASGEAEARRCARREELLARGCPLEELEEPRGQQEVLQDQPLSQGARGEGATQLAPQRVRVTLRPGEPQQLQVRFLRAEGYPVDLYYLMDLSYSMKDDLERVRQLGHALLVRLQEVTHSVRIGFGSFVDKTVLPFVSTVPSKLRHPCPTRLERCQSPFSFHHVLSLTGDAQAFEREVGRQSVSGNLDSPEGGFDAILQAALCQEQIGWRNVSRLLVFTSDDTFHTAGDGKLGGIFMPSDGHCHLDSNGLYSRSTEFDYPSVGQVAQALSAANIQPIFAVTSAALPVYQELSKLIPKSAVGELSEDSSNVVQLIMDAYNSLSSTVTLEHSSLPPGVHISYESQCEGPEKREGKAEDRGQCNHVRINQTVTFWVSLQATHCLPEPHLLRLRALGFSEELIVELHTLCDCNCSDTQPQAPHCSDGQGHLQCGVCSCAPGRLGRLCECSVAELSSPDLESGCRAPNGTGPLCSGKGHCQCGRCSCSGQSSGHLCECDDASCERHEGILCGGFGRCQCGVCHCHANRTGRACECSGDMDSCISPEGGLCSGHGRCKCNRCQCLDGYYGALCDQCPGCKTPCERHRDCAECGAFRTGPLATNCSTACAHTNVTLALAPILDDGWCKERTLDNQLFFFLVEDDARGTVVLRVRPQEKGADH
Experimental: α4β7-MAdCAM Competition ELISA A nickel coated plate (Pierce #15442) was coated with rh integrin α4β[…] Systems #5397-A30) at 800 ng/well and incubated at room temperature with shaking for 1 hr. The solution was then removed by shaking and blocked with assay buffer (50 mM Tris-HCl pH7.6, 150 mM NaCl, 1 mM MnCl2 or MgCl2, 0.05% Tween-20 and 0.5% BSA) at 250 ul/well. The plate was then incubated at room temperature for 1 hr. Each well was washed 3 times with wash buffer (50 mM Tris-HCl pH7.6, 100 mM NaCl, 1 mM MnCl2 or MgCl2, 0.05% Tween-20). To each well was added 25 ul of a serial dilution (3-fold dilutions in assay buffer) of peptides starting at 20 μM. 25 ul of recombinant human MAdCAM-1 (R&D Systems #6056-MC) was then added to each well at a fixed concentration 20 nM. The final starting peptide concentration was 10 μM, and the final MAdCAM-1 concentration was 10 nM. The plates were then incubated at room temperature for 1 hr to reach binding equilibrium. The wells were then washed three times with wash buffer. 50 ul of mouse anti-human IgG1-HRP (Invitrogen #A10648) diluted in 1:2000 in assay buffer was then added to each well. The wells were incubated at room temperature for 45 min with shaking. The wells were then washed 3 times with wash buffer. 100 ul of TMB were then added to each well and closely observe during development time. The reaction was stopped with 2N H2SO4 and absorbance was read at 450 nm.

[1] = Simulated Intestinal Fluid (SIF) Stability Assay; type: in vitro ADME; conditions: pig, 37° C., monomers, Table 6; for half-life at 22 μM: simulated intestinal fluid (SIF) with 1% porcine pancreatin, pH 6.5, porcine pancreatin; for half-life: porcine pancreatin
Summary of the method: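 Peptide at 22 μM final was incubated at 37° C in blank FaSSIF pH 6.5 with 1% porcine pancreatin. Timed samples were quenched in acetonitrile/methanol/formic acid with internal standard and analysed by LC-MS/MS. Half-lives came from first-order exponential fits of percent remaining.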

SMILES	IC50 (rh integrin α4β7)	half-life at 22 μM [1]	half-life [1]
CC(C)C[C@@H]1NC(=O)[C@H]([C@@H](C)O)NC(=O)[C@H](CC(=O)O)NC(=O)[C@H](CO)NC(=O)[C@H](CCCNC(=N)N)N(C)C(=O)c2ccccc2CSC(C)(C)[C@@H](C(=O)N[C@@H](Cc2c[nH]c3ccccc23)C(=O)N[C@@H](CCC(=O)O)CC(=O)N[C@H](CCCCN)C(N)=O)NC1=O [compound 61] (HELM PEPTIDE1{[meR].S.D.T.L.[Pen].W.[O=C(O)CC[C@@H](CC(=O)[*:2])N[*:1]].[dK].[am]}|CHEM1{[O=C(c1ccccc1C[*:2])[*:1]]}$PEPTIDE1,CHEM1,1:R1-1:R1|PEPTIDE1,CHEM1,6:R3-1:R2$$$V2.0)	< 0.025 µM	> 3 h	–
CC(C)C[C@@H]1NC(=O)[C@H]([C@@H](C)O)NC(=O)[C@H](CC(=O)O)NC(=O)[C@H](CO)NC(=O)[C@H](CCCNC(=N)N)N(C)C(=O)c2ccccc2CSC(C)(C)[C@@H](C(=O)N[C@@H](Cc2c[nH]c3ccccc23)C(=O)N[C@@H](CCC(=O)O)C(=O)N(C)[C@H](CCCCN)C(N)=O)NC1=O [compound 62] (HELM PEPTIDE1{[meR].S.D.T.L.[Pen].W.E.[CN([C@H](CCCCN)C(=O)[*:2])[*:1]].[am]}|CHEM1{[O=C(c1ccccc1C[*:2])[*:1]]}$PEPTIDE1,CHEM1,1:R1-1:R1|PEPTIDE1,CHEM1,6:R3-1:R2$$$V2.0)	< 0.025 µM	> 3 h	–
CC(C)C[C@@H]1NC(=O)[C@H]([C@@H](C)O)NC(=O)[C@H](CC(=O)O)NC(=O)[C@H](CO)NC(=O)[C@H](CCCNC(=N)N)N(C)C(=O)c2ccccc2CSC[C@H](C(=O)N[C@@H](Cc2c[nH]c3ccccc23)C(=O)N[C@@H](CCC(=O)O)CC(=O)N[C@H](CCCCN)C(N)=O)NC1=O [compound 66] (HELM PEPTIDE1{[meR].S.D.T.L.[dC].W.[O=C(O)CC[C@@H](CC(=O)[*:2])N[*:1]].[dK].[am]}|CHEM1{[O=C(c1ccccc1C[*:2])[*:1]]}$PEPTIDE1,CHEM1,1:R1-1:R1|PEPTIDE1,CHEM1,6:R3-1:R2$$$V2.0)	0.025 to 0.1 µM	–	> 3 h
CC(C)C[C@@H]1NC(=O)[C@H]([C@@H](C)O)NC(=O)[C@H](CC(=O)O)NC(=O)[C@H](CO)NC(=O)[C@H](CCCNC(=N)N)N(C)C(=O)c2ccccc2CSCC[C@@H](C(=O)N[C@@H](Cc2c[nH]c3ccccc23)C(=O)N[C@@H](CCC(=O)O)C(=O)N[C@H](CCCCN)C(N)=O)NC1=O [compound 67] (HELM PEPTIDE1{[meR].S.D.T.L.[O=C([C@H](CCS[*:3])N[*:1])[*:2]].W.E.[dK].[am]}|CHEM1{[O=C(c1ccccc1C[*:2])[*:1]]}$PEPTIDE1,CHEM1,1:R1-1:R1|PEPTIDE1,CHEM1,6:R3-1:R2$$$V2.0)	< 0.025 µM	–	< 0.333 h
CC(C)C[C@@H]1NC(=O)[C@H]([C@@H](C)O)NC(=O)[C@H](CC(=O)O)NC(=O)[C@H](CO)NC(=O)[C@H](CCCNC(=N)N)N(C)C(=O)c2ccccc2CSC(C)(C)[C@@H](C(=O)N[C@@H](Cc2cccc3ccccc23)C(=O)N[C@H](CCC(=O)O)C(=O)N[C@H](CCCCN)C(N)=O)NC1=O [compound 68] (HELM PEPTIDE1{[meR].S.D.T.L.[Pen].[O=C([C@H](Cc1cccc2ccccc12)N[*:1])[*:2]].[dE].[dK].[am]}|CHEM1{[O=C(c1ccccc1C[*:2])[*:1]]}$PEPTIDE1,CHEM1,1:R1-1:R1|PEPTIDE1,CHEM1,6:R3-1:R2$$$V2.0)	< 0.025 µM	> 3 h	–
CC(C)C[C@@H]1NC(=O)[C@H]([C@@H](C)O)NC(=O)[C@H](CC(=O)O)NC(=O)[C@H](CO)NC(=O)[C@H](CCCNC(=N)N)N(C)C(=O)c2ccccc2CSC(C)(C)[C@@H](C(=O)N[C@@H](Cc2ccc3ccccc3c2)C(=O)N[C@@H](CCC(=O)O)CC(=O)N[C@H](CCCCN)C(N)=O)NC1=O [compound 70]	< 0.025 µM	> 3 h	–
CC(C)C[C@@H]1NC(=O)[C@H]([C@@H](C)O)NC(=O)[C@H](CC(=O)O)NC(=O)[C@H](CO)NC(=O)[C@H](CCCNC(=N)N)N(C)C(=O)c2ccccc2CSC(C)(C)[C@@H](C(=O)N[C@H](Cc2ccccc2)C(=O)N[C@@H](Cc2ccc3ccccc3c2)C(=O)N[C@H](CCCCN)C(N)=O)NC1=O [compound 71] (HELM PEPTIDE1{[meR].S.D.T.L.[Pen].[dF].[O=C([C@H](Cc1ccc2ccccc2c1)N[*:1])[*:2]].[dK].[am]}|CHEM1{[O=C(c1ccccc1C[*:2])[*:1]]}$PEPTIDE1,CHEM1,1:R1-1:R1|PEPTIDE1,CHEM1,6:R3-1:R2$$$V2.0)	0.025 to 0.1 µM	> 3 h	–
CC(C)C[C@@H]1NC(=O)[C@H]([C@@H](C)O)NC(=O)[C@H](CC(=O)O)NC(=O)[C@H](CO)NC(=O)[C@H](CCCNC(=N)N)N(C)C(=O)c2ccccc2CSC(C)(C)[C@@H](C(=O)N[C@H](Cc2ccccc2)C(=O)N[C@@H](CCC(=O)O)C(=O)N[C@H](CCCCN)C(N)=O)NC1=O [compound 72] (HELM PEPTIDE1{[meR].S.D.T.L.[Pen].[dF].E.[dK].[am]}|CHEM1{[O=C(c1ccccc1C[*:2])[*:1]]}$PEPTIDE1,CHEM1,1:R1-1:R1|PEPTIDE1,CHEM1,6:R3-1:R2$$$V2.0)	< 0.025 µM	> 3 h	–
CC(C)C[C@@H]1NC(=O)[C@H]([C@@H](C)O)NC(=O)[C@H](CC(=O)O)NC(=O)[C@H](CO)NC(=O)[C@H](CCCNC(=N)N)N(C)C(=O)c2ccccc2CSC(C)(C)[C@@H](C(=O)N[C@@H](Cc2ccccc2)C(=O)N[C@@H](CCC(=O)O)CC(=O)N[C@H](CCCCN)C(N)=O)NC1=O [compound 73] (HELM PEPTIDE1{[meR].S.D.T.L.[Pen].F.[O=C(O)CC[C@@H](CC(=O)[*:2])N[*:1]].[dK].[am]}|CHEM1{[O=C(c1ccccc1C[*:2])[*:1]]}$PEPTIDE1,CHEM1,1:R1-1:R1|PEPTIDE1,CHEM1,6:R3-1:R2$$$V2.0)	< 0.025 µM	> 3 h	–
CC(C)C[C@@H]1NC(=O)[C@H]([C@@H](C)O)NC(=O)[C@H](CC(=O)O)NC(=O)[C@H](CO)NC(=O)[C@H](CCCNC(=N)N)N(C)C(=O)c2ccccc2CSC(C)(C)[C@@H](C(=O)N[C@@H](Cc2ccc(O)cc2)C(=O)N[C@@H](CCC(=O)O)CC(=O)N[C@H](CCCCN)C(N)=O)NC1=O [compound 74] (HELM PEPTIDE1{[meR].S.D.T.L.[Pen].Y.[O=C(O)CC[C@@H](CC(=O)[*:2])N[*:1]].[dK].[am]}|CHEM1{[O=C(c1ccccc1C[*:2])[*:1]]}$PEPTIDE1,CHEM1,1:R1-1:R1|PEPTIDE1,CHEM1,6:R3-1:R2$$$V2.0)	< 0.025 µM	> 3 h	–

From patent US20260217767A1, “NOVEL A4B7 THIOETHER PEPTIDE DIMER ANTAGONISTS” (Protagonist Therapeutics, Inc., priority 2014, published 2026)
